The values below come from patent US20260207769A1, “ANTIBODY DRUG CONJUGATES” (YALE UNIVERSITY, priority 2022, published 2026).

Structures are written as SMILES.

For series [1], the system named is DAYO medulloblastoma cells. Briefly: Cell viability of DAYO cells (DM1, cD31N-DM1). In kind it is cell-based. Conditions: after 3 days. From the text: (§1) Cancer cell lines were acquired from ATCC and cultured according to well known methods in the art. Treatment with cytotoxic agents, antibodies, or ADCs refers to the addition of the cytotoxic agent, antibody or ADC (i.e., DM1 or cD31N-DM1, etc.) to the culture media for a set duration.

For another series, the system named is GL261 glioma cells. In words: Cell viability of GL261 cells (DM1, cD31N-DM1). It is filed as cell-based. As to conditions: after 6 days.
Excerpt: as §1

Series [2] deals with PEO-1 (BRCA2^−/−) ovarian adenocarcinoma cells. In words: Cell viability of PEO-1 cells. As to conditions: BRCA2-/- PEO-1 cells, after 5 days. In kind it is cell-based.
Excerpt: as §1
(§2) The effects of longer-term treatment with SN38 and cD31N-SN38 on PEO-4 (WT) and PEO-1 (BRCA2^−/−) ovarian cancer cells were investigated.

The test system of series [3] is BRCA2^−/− DLD-1 colorectal adenocarcinoma cells. In words: Cell viability assay in BRCA2-/- DLD-1 cells. In kind it is cell-based, human. As to conditions: BRCA2-/- DLD-1 cells, after 6 days.
Excerpt: as §1
(§3) BRCA2 deficient (BRCA2′) cells are more sensitive to DM1 because BRCA2 participates in DNA double-stranded break (DSB) repair.

Series [4] has as its system Capan-1 pancreatic cancer cells. Briefly: Cell viability of Capan-1 cells (DM1, cD31N-DM1). It is filed as cell-based. As to conditions: after 6 days.
Excerpt: as §1

Series [5] has as its system WT DLD-1 colorectal adenocarcinoma cells. In words: Cell viability assay in WT DLD-1 cells. It is filed as cell-based, human. As to conditions: after 6 days.
Excerpt: as §1, §3
The viability assay protocol is set forth in Example 3.

The subject of series [6] is PEO-4 (WT) ovarian adenocarcinoma cells. In words: Cell viability of PEO-4 cells. In kind it is cell-based. As to conditions: WT PEO-4 cells, after 5 days.
Excerpt: as §1, §2

The subject of a further series is B16 melanoma cells. Briefly: Cell viability of B16 melanoma cells (DM1, cD31N-DM1). It is filed as cell-based. As to conditions: 0.0001 nm to 1000 nm, after 3 days.
Excerpt: as §1

Regarding `COc1cc2cc(c1Cl)N(C)C(=O)C[C@H](OC(=O)[C@H](C)N(C)C(=O)CCS)[C@]1(C)O[C@H]1[C@H](C)[C@@H]1C[C@@](O)(NC(=O)O1)[C@H](OC)/C=C/C=C(\C)C2` [DM1, N(2′)-deacetyl-N(2′)-(3-mercapto-1-oxopropyl)-maytansine], the “cytotoxicity (cell viability)” value in series [1] was “cytotoxic to the DAYO medulloblastoma cells in a concentration-dependent manner”; in the series on GL261 glioma cells, “cytotoxic to the GL261 glioma cells in a concentration-dependent manner”; in series [2], “cytotoxic”; in series [3], “cytotoxic”; in series [4], “cytotoxic to the Capan-1 pancreatic cancer cells in a concentration-dependent manner”; in series [5], “cytotoxic”. The “cytotoxicity (cell viability)” value in series [6] was “cytotoxic”; in the series with B16 melanoma cells, “cytotoxic to B16 melanoma cells in a concentration-dependent manner”.
